In patent US5192764A, “Pyrazinone N-oxide nucleosides and analogs thereof” (priority 1991, dated 1993):

Key:
herpes simplex = details: literature; comparable to 5-iodo-2'-deoxyuridine; cited from earlier work
vaccinia viruses = details: literature; comparable to 5-iodo-2'-deoxyuridine; cited from earlier work
HSV-1 (KOS strain) [1] = test: Plaque reduction method, anti-HSV-1 (KOS strain); format: cell-based; details: for activity at 1 µM: Human alphaherpesvirus 1, 1 uM; for activity at 1 µM / activity at 5 µM / activity at 25 µM / activity at 100 µM: read-out: Plaque Forming Units, % of Control; for activity at 5 µM: Human alphaherpesvirus 1, 5 uM; for activity at 25 µM: Human alphaherpesvirus 1, 25 uM; for activity at 100 µM: Human alphaherpesvirus 1, 100 uM; for antiherpes activity (in words): data of Table 1
Description: Antiviral (HSV) activities of 1-(2'-Deoxy-B-D-ribofuranosyl)-2-pyrazinone-4-N-oxide (A in table 1) and the corresponding 1-(2'-Deoxy-B-D-ribofuranosyl)-5-methyl-2-pyrazinone-N-oxide and 1-(2,-Deoxy-B-D-ribofuranosyl)-5-ethyl-2-pyrazinone-4-N-oxide (respectively, B and C of table 1) were determined according to the procedure described in Gao, et al., Antimic. Agents Chem., 34, 808 (1990), using the plaque reduction method. Table 1 indicates the relative antiviral activities of the three derivatives against HSV-1 (KOS strain).

leukemic L1210 cells = details: literature; cited from earlier work
bacterial cells = details: literature; cited from earlier work
HSV-1 KOS (PMEAr) = test: Plaque Reduction Method against HSV-1 KOS 9-(2-phosphonylmethoxyethyl)-adenine resistant strain; format: cell-based; details: Human alphaherpesvirus 1, read-out: ID50
Description: (§1) Using the Plaque Reduction Method, activity against HSV-1 KOS Phosphono formate resistant (PFAr) and KOS 9-(2-Phosphonylmethoxyethyl)-adenine resistant (PMEAr) strains was assessed.

leukemia L1210 cells = test: Cytotoxicity against leukemia L1210 cells; format: cell-based; details: up to a concentration of 2×10^-3
Description: (§2) Compounds B and C were tested for cytotoxicity against leukemia L1210 cells up to a concentration of 2×10^-3 according to the method described in Bobek and Bloch, J. Med. Chem., 20, 458, 1977. In addition, these compounds were tested for cytotoxicity against a human T-cell lymophoblast cell line (CEM) according to the method of Vazquez-Padua, et al., Cancer Comm., 2, 55-62 (1990) with the exception that the cell line was different, to assay the cells, the cells were counted with a cell counter and the cells were incubated for 4 days instead of for 3 days.

HSV-2 (333) = test: Virus Yield method against HSV-2 (333); format: cell-based; details: Human alphaherpesvirus 2, read-out: ID90 (the source's name)
HSV-1 KOS (PFAr) = test: Plaque Reduction Method against HSV-1 KOS phosphonoformate resistant strain; format: cell-based; details: Human alphaherpesvirus 1, read-out: ID50
Description: as §1

HSV-1 (KOS strain) [2] = test: Virus Yield Method against HSV-1 (KOS strain); format: cell-based; details: for IC90: Human alphaherpesvirus 1, read-out: ID90 (the source's name)
EBV = test: Anti-EBV activity, EBV DNA in high EBV producer cell line; format: cell-based; details: EBV DNA in Hl subclone of P3HR-1 cells, EBV DNA probe BAMH IM
Description: In particular, when EBV DNA was assessed in a high EBV producer cell line (Hl, which is a subclone of P3HR-1 cells of Burkitt's lymphoma cell line), Compound C evidenced anti-EBV activity. The methodology employed in the EBV assay is similar to the method of Foster, et al., Jour. Biol. Chem., 266, 238, (1991), except that the EBV DNA was assessed with an EBV DNA probe BAMH IM.

Varicella Zoster (VZV) = test: Anti-VZV activity (Virus Yield) in HLF human cell line; format: cell-based
Excerpt: As tested, using the above-described methodology, luM of Compound C inhibited 90% of the Virus Yield.

thymidine phosphorylase = test: Breakdown by human liver thymidine phosphorylase; format: biochemical; details: enzyme from human liver
Excerpt: Compound C was also examined against thymidine phosphorylase obtained from the human liver using standard methodology.

[3] = Cytotoxicity against human T-cell lymphoblast cell line (CEM); format: cell-based; details: human; CEM cells, 4 days incubation; read-out: cytotoxicity ID50
Description: as §2

[4] = system: human T-cell lymophoblast cell line (CEM); test: as above; format: cell-based; details: CEM cells, 4 days incubation
Description: as §2

Row | Structure (SMILES) | activity at 1 µM (HSV-1 (KOS strain) [1]) | activity at 5 µM (HSV-1 (KOS strain) [1]) | activity at 25 µM (HSV-1 (KOS strain) [1]) | activity at 100 µM (HSV-1 (KOS strain) [1]) | antiherpes activity (in words) (HSV-1 (KOS strain) [1]) | activity against leukemic L1210 cells (leukemic L1210 cells) | antibacterial / antimicrobial activity (bacterial cells) | IC50 (HSV-1 KOS (PMEAr)) | cytotoxicity (leukemia L1210 cells) | IC90 (HSV-2 (333)) | IC50 (HSV-1 KOS (PFAr)) | IC90 (HSV-1 (KOS strain) [2]) | also measured
1 | CCc1cn([C@H]2C[C@H](O)[C@@H](CO)O2)c(=O)[nH]c1=O [5-ethyl-2'-deoxyuridine] |  |  |  |  |  |  |  |  |  |  |  |  | activity against herpes simplex (herpes simplex): significant activity; activity against vaccinia viruses (vaccinia viruses): significant activity
2 | O=c1c[n+]([O-])ccn1[C@H]1C[C@H](O)[C@@H](CO)O1 [A, 1-(2'-Deoxy-B-D-ribofuranosyl)-2-pyrazinone-4-N-oxide] | 100% | 100% | 100% | 100% | inactive | essentially inactive | significantly more effective as an antimicrobial agent than the riboside |  |  |  |  |  | 
3 | Cc1cn([C@H]2C[C@H](O)[C@@H](CO)O2)c(=O)c[n+]1[O-] [Compound B, 1-(2'-Deoxy-B-D-ribofuranosyl)-5-methyl-2-pyrazinone-N-oxide] | 100% | 39% | 0.91% | 0.09% | significant antiherpes activity | significantly more active | only marginally active | 600 nM | significant cytoxtoxicity | 3000 nM | 1400 nM | 1800 nM | 
4 | CCc1cn([C@H]2C[C@H](O)[C@@H](CO)O2)c(=O)c[n+]1[O-] [Compound C, 1-(2-Deoxy-B-D-ribofuranosyl)-5-ethyl-2-pyrazinone-4-N-oxide] | 100% | 55% | 4.5% | 0.3% | significant antiherpes activity |  |  | 1000 nM | virtually no cytotoxicity | 2000 nM | 3400 nM | 2800 nM | EC50 (HSV-1 (KOS strain) [1]; Human alphaherpesvirus 1, plaque reduction): 6000 nM; anti-EBV activity (EBV): significant anti-EBV activity; activity against VZV (in words) (Varicella Zoster (VZV)): significant activity; inhibition of Virus Yield (Varicella Zoster (VZV); luM): 90%; substrate of thymidine phosphorylase (thymidine phosphorylase): substrate of the enzyme; rate of breakdown by the enzyme relative to thymidine (thymidine phosphorylase; compared with thymidine): much less than the rate or breakdown of thymidine; CC50 at 96 h [3]: > 400000 nM; cytotoxicity relative to Compound B [4]: significantly less toxic than Compound B
5 | Nc1nc2c(ncn2COCCO)c(=O)[nH]1 [acyclovir, reference compound] |  |  |  |  |  |  |  |  |  |  | 6200 nM | 14000 nM | ID90 of ACV relative to Compound C (fold higher) (HSV-1 (KOS strain) [2]): approximately 7 fold
6 | O=c1c[n+]([O-])ccn1[C@@H]1O[C@H](CO)[C@@H](O)[C@H]1O [riboside of 2-pyrazinone-4-N-oxide, reference compound] |  |  |  |  |  |  | antibacterial activity |  |  |  |  |  | 
